# Test results taken from patent publication US11548868B2, “Heterocyclic compounds, compositions comprising heterocyclic compound, and methods of use thereof” (JS INNOPHARM (SHANGHAI) LTD, priority 2017, dated 2023).
# Assays:
# [1] = molecular target: T1, TDO2 in A172 cancer cells (Homo sapiens, UniProt P48775); assay: TDO2 Cellular Assay (kynurenine production in A172 cancer cells); type: cell-based; conditions: L-Trp 1 mM, 24 hours incubation, kynurenine at 490 nm
# T1 construct: endogenous in cells; host or cells: A172 cancer cells
# T1 sequence (P48775 whole entry): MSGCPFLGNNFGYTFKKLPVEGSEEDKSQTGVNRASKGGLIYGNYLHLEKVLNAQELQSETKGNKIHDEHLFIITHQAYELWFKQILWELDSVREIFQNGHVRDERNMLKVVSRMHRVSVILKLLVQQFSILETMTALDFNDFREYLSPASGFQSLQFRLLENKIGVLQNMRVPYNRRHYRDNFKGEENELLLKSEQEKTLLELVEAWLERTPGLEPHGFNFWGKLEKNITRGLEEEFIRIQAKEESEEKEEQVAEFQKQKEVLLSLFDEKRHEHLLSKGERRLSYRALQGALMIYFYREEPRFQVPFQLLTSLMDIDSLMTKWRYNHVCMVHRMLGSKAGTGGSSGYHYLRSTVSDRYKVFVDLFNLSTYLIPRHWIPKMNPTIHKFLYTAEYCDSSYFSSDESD
# Procedure, shortened: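 Kynurenine output of A172 cells was read colorimetrically at 490 nm (Ehrlich reagent after TCA hydrolysis at 50 °C). Cells had 1 mM L-Trp plus compound at 0–25 μM in 0.25% DMSO for 24 h; IC50 values were fitted non-linearly from percent inhibition relative to vehicle.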
# [2] = molecular target: T2, IDO1 in Hela cancer cells (Homo sapiens, UniProt P14902); assay: IDO1 Cellular Assay (kynurenine production in IFN-γ stimulated Hela cancer cells); type: cell-based; conditions: human IFN-γ 50 ng/mL, 48 hours incubation, kynurenine at 490 nm
# T2 construct: endogenous in cells; host or cells: Hela cancer cells stimulated with human IFN-γ
# T2 sequence (P14902 whole entry): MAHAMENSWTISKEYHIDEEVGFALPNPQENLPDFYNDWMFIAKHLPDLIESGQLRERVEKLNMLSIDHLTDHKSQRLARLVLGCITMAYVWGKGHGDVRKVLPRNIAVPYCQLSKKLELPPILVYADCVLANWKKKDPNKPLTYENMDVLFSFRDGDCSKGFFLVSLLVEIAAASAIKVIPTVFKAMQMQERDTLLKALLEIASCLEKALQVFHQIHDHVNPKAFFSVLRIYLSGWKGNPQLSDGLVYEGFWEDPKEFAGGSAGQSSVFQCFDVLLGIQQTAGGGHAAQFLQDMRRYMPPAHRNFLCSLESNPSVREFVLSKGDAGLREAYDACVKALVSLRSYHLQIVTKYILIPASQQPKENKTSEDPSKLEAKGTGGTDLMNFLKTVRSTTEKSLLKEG
# Protocol: Hela cancer cells (5×10^3 per well) with 85 μL DMEM medium containing 10% FBS were seeded in a 96-well plate and incubated at 95% humidity and 5% CO2 at 37° C. for 24 hours. human IFN-γ (10 μL, 50 ng/mL final concentration) and 5 μL serial dilutions of the test compounds were added into each well. The test compounds were dissolved in DMSO, and successively diluted with pH7.5 buffer (with final DMSO concentration of 0.25%) resulting in final concentrations of the test compounds ranging from 0 to 25 μM (0, 2.5, 7.5, 25, 75, 250, 750, 2500, 7500, & 25000 nM). After 48 hours of incubation, 70 uL of the supernatant per well was transferred to a new 96 well plate. Trichloroacetic acid (6.1 N, 8 μL) was mixed into each well and incubated at 50° C. for 30 min to hydrolyze N-formylkynurenine produced by IDO to kynurenine. The reaction mixture was then centrifuged for 10 min at 2500 RPM to remove sediments. 50 μL of the supernatant per well was transferred to another 96 well plate and mixed with 50 uL of 2% (w/v) p-dimethylaminobenzaldehyde in acetic acid. The yellow color derived from kynurenine was measured at 490 nm using a microplate reader. Percent inhibition of the test compounds was determined by measuring the decrease in kynurenine as compared to the control of DMSO vehicle, which was calculated by formula of (WC-WT)/WC, where WC is the mean absorbance of the control well minus blank well; WT is the mean absorbance of the test well minus the blank well. Data was analyzed by GraphPad Prism 5 and the IC50 values were obtained by non-linear regression.
# The IC50 values of for Compounds disclosed are listed in Table 2, A′: ≤0.5 μM; B′: >0.5 μM and ≤1 μM; C′: >1.0 μM and ≤5 uM; and D′: >5 μM.
Compound,IC50 [1] [nM],IC50 [2] [nM]
"OCC1[C@H]2C[C@](O)(c3cc(Cl)cc4[nH]ncc34)C[C@@H]12 (stereo partly drawn) [Example 111, (1R,3r,5S)-3-(6-chloro-1H-indazol-4-yl)-6-(hydroxymethyl)bicyclo[3.1.0]hexan-3-ol]",≤ 500,1000 to 5000
"CC(=O)N1C[C@H]2CC(C(O)c3cc(Cl)cc4cn[nH]c34)C[C@H]2C1 (stereo partly drawn) [Example 112, 1-((3aR,6aS)-5-((5-chloro-1H-indazol-7-yl)(hydroxy)methyl)hexahydrocyclopenta[c]pyrrol-2(1H)-yl)ethanone]",> 5000,500 to 1000
"CS(=O)(=O)N1C[C@H]2CC(C(O)c3cc(Cl)cc4cn[nH]c34)C[C@H]2C1 (stereo partly drawn) [Example 113, (5-chloro-1H-indazol-7-yl)((3aR,6aS)-2-(methylsulfonyl)octahydrocyclopenta[c]pyrrol-5-yl)methanol]",1000 to 5000,1000 to 5000
"O[C@@]1(c2cc(Cl)cc3[nH]ncc23)C[C@H]2CN(c3ccncc3)C[C@H]2C1 [Example 116, (3aR,5r,6aS)-5-(6-chloro-1H-indazol-4-yl)-2-(pyridin-4-yl)octahydrocyclopenta[c]pyrrol-5-ol]",≤ 500,> 5000
"O[C@@]1(c2cc(Cl)cc3cn[nH]c23)C[C@H]2CN(c3ccncc3)C[C@H]2C1 [Example 117, (3aR,5r,6aS)-5-(5-chloro-1H-indazol-7-yl)-2-(pyridin-4-yl)octahydrocyclopenta[c]pyrrol-5-ol]",> 5000,> 5000
"O[C@@]1(c2cc(Cl)cc3cn[nH]c23)C[C@H]2C[C@H]2C1 [Example 118, (1R,3r,5S)-3-(5-chloro-1H-indazol-7-yl)bicyclo[3.1.0]hexan-3-ol]",1000 to 5000,> 5000
"O=C(NC1CC1)N[C@H]1[C@@H]2C[C@@](O)(c3cc(Cl)cc4[nH]ncc34)C[C@@H]21 [Example 120, 1-((1R,3r,5S,6r)-3-(6-chloro-1H-indazol-4-yl)-3-hydroxybicyclo[3.1.0]hexan-6-yl)-3-cyclopropylurea]",≤ 500,> 5000
"O=S(=O)(NC1CCCCC1)N[C@H]1[C@@H]2C[C@@](O)(c3cc(Cl)cc4[nH]ncc34)C[C@@H]21 [Example 123, N′-cyclohexyl-N-((1R,3r,5S,6r)-3-(6-chloro-1H-indazol-4-yl)-3-hydroxybicyclo[3.1.0]hexan-6-yl)sulfuric diamide]",≤ 500,1000 to 5000
"O=C(NC1CCCCC1)N[C@H]1[C@@H]2C[C@@](O)(c3cc(Cl)cc4[nH]ncc34)C[C@@H]21 [Example 126, 1-((1R,3r,5S,6r)-3-(6-chloro-1H-indazol-4-yl)-3-hydroxybicyclo[3.1.0]hexan-6-yl)-3-cyclohexylurea]",≤ 500,> 5000
"COc1ccccc1-c1c[nH]cc1C(=O)N[C@H]1[C@@H]2C[C@@](O)(c3cc(Cl)cc4[nH]ncc34)C[C@@H]21 [Example 127, N-((1R,3r,5S,6r)-3-(6-chloro-1H-indazol-4-yl)-3-hydroxybicyclo[3.1.0]hexan-6-yl)-4-(2-methoxyphenyl)-1H-pyrrole-3-carboxamide]",≤ 500,> 5000
"CCNS(=O)(=O)N[C@H]1[C@@H]2C[C@@](O)(c3cc(Cl)cc4[nH]ncc34)C[C@@H]21 [Example 128, N′-ethyl-N-((1R,3r,5S,6r)-3-(6-chloro-1H-indazol-4-yl)-3-hydroxybicyclo[3.1.0]hexan-6-yl)sulfuric diamide]",≤ 500,500 to 1000

# More lines, now with the values ahead:
IC50 [1] [nM],IC50 [2] [nM],Compound
≤ 500,> 5000,"O=C(N[C@H]1[C@@H]2C[C@@](O)(c3cc(Cl)cc4cn[nH]c34)C[C@@H]21)C1CC1 [Example 107, N-((1R,3r,5S,6r)-3-(5-chloro-1H-indazol-7-yl)-3-hydroxybicyclo[3.1.0]hexan-6-yl)cyclopropanecarboxamide]"
≤ 500,> 5000,"CC(=O)N[C@H]1[C@@H]2C[C@@](O)(c3cc(Cl)cc4cn[nH]c34)C[C@@H]21 [Example 108, N-((1R,3r,5S,6r)-3-(5-chloro-1H-indazol-7-yl)-3-hydroxybicyclo[3.1.0]hexan-6-yl)acetamide]"
500 to 1000,1000 to 5000,"CS(=O)(=O)N[C@H]1[C@@H]2C[C@@](O)(c3cc(Cl)cc4cn[nH]c34)C[C@@H]21 [Example 109, N-((1R,3r,5S,6r)-3-(5-chloro-1H-indazol-7-yl)-3-hydroxybicyclo[3.1.0]hexan-6-yl)methanesulfonamide]"
1000 to 5000,1000 to 5000,"O=S(=O)(N[C@H]1[C@@H]2C[C@@](O)(c3cc(Cl)cc4cn[nH]c34)C[C@@H]21)C1CC1 [Example 110, N-((1R,3r,5S,6r)-3-(5-chloro-1H-indazol-7-yl)-3-hydroxybicyclo[3.1.0]hexan-6-yl)cyclopropanesulfonamide]"
≤ 500,> 5000,"CNC(=O)N[C@H]1[C@@H]2C[C@@](O)(c3cc(Cl)cc4[nH]ncc34)C[C@@H]21 [Example 114, 1-((1R,3r,5S,6r)-3-(6-chloro-1H-indazol-4-yl)-3-hydroxybicyclo[3.1.0]hexan-6-yl)-3-methylurea]"
≤ 500,1000 to 5000,"O=C(Nc1ccccc1)N[C@H]1[C@@H]2C[C@@](O)(c3cc(Cl)cc4[nH]ncc34)C[C@@H]21 [Example 115, 1-((1R,3r,5S,6r)-3-(6-chloro-1H-indazol-4-yl)-3-hydroxybicyclo[3.1.0]hexan-6-yl)-3-phenylurea]"
≤ 500,≤ 500,"O=C(N[C@H]1[C@@H]2C[C@@](O)(c3cc(Cl)cc4[nH]ncc34)C[C@@H]21)c1ccc(Cl)cc1 [Example 119, 4-chloro-N-((1R,3r,5S,6r)-3-(6-chloro-1H-indazol-4-yl)-3-hydroxybicyclo[3.1.0]hexan-6-yl)benzamide]"
≤ 500,≤ 500,"O=C(Nc1ccc(Cl)cc1)N[C@H]1[C@@H]2C[C@@](O)(c3cc(Cl)cc4[nH]ncc34)C[C@@H]21 [Example 121, 1-((1R,3r,5S,6r)-3-(6-chloro-1H-indazol-4-yl)-3-hydroxybicyclo[3.1.0]hexan-6-yl)-3-(4-chlorophenyl)urea]"
1000 to 5000,1000 to 5000,"O=C(Nc1cccc(Cl)c1)N[C@H]1[C@@H]2C[C@@](O)(c3cc(Cl)cc4[nH]ncc34)C[C@@H]21 [Example 122, 1-((1R,3r,5S,6r)-3-(6-chloro-1H-indazol-4-yl)-3-hydroxybicyclo[3.1.0]hexan-6-yl)-3-(3-chlorophenyl)urea]"
≤ 500,≤ 500,"O=C(N[C@H]1[C@@H]2C[C@@](O)(c3cc(Cl)cc4[nH]ncc34)C[C@@H]21)c1cccc(Cl)c1 [Example 124, 3-chloro-N-((1R,3r,5S,6r)-3-(6-chloro-1H-indazol-4-yl)-3-hydroxybicyclo[3.1.0]hexan-6-yl)benzamide]"
≤ 500,> 5000,"CCNC(=O)N[C@H]1[C@@H]2C[C@@](O)(c3cc(Cl)cc4[nH]ncc34)C[C@@H]21 [Example 125, 1-((1R,3r,5S,6r)-3-(6-chloro-1H-indazol-4-yl)-3-hydroxybicyclo[3.1.0]hexan-6-yl)-3-ethylurea]"
1000 to 5000,1000 to 5000,"O=C(N[C@H]1[C@@H]2C[C@@](O)(c3cc(Cl)cc4cn[nH]c34)C[C@@H]21)c1ccccc1 [Example 129, N-((1R,3r,5S,6r)-3-(5-chloro-1H-indazol-7-yl)-3-hydroxybicyclo[3.1.0]hexan-6-yl)benzamide]"
1000 to 5000,500 to 1000,"O=C(N[C@H]1[C@@H]2C[C@@](O)(c3cc(Cl)cc4cn[nH]c34)C[C@@H]21)c1ccncc1 [Example 130, N-((1R,3r,5S,6r)-3-(5-chloro-1H-indazol-7-yl)-3-hydroxybicyclo[3.1.0]hexan-6-yl)isonicotinamide]"
1000 to 5000,> 5000,"O=S(=O)(N[C@H]1[C@@H]2C[C@@](O)(c3cc(Cl)cc4cn[nH]c34)C[C@@H]21)c1ccccc1 [Example 131, N-((1R,3r,5S,6r)-3-(5-chloro-1H-indazol-7-yl)-3-hydroxybicyclo[3.1.0]hexan-6-yl)benzenesulfonamide]"
500 to 1000,1000 to 5000,"O=C(Nc1ccccc1)N[C@H]1[C@@H]2C[C@@](O)(c3cc(Cl)cc4cn[nH]c34)C[C@@H]21 [Example 132, 1-((1R,3r,5S,6r)-3-(5-chloro-1H-indazol-7-yl)-3-hydroxybicyclo[3.1.0]hexan-6-yl)-3-phenylurea]"
